Consider two compounds from US20200338044A1 (PCI Biotech AS, priority 2016, published 2020).

Entries after “also recorded” stand apart in the source; their conditions may differ.

Data set [1] relates to TFK-1 cell line. In words: Cytotoxicity of gemcitabine without PCI, MTT assay. The format is cell-based, human. The source says: The cell lines used were TFK-1 and EGI-1, both were obtained from the Department of Cancer Prevention, The Norwegian Radium Hospital, Oslo, Norway. TFK-1 is a human papillary bile duct adenocarcinoma cell line and EGI-1 is a poorly differentiated human bile duct adenocarcinoma cell line. Both cell lines originate from extrahepatic tumours (Saijyo et al., 1995, Tohoku J. Exp. Med., 177:61-71; EGI-1—Cell LINCS Library of Intergrated network-based Cellular Signatures. Available from the website having the URL beginning with “lincs” and ending with “.hms.harvard.edu/db/cells/50181/”), but are quite different both morphologically and physiologically (Xu et al., 2013, Clinical Cancer Research, January 1; 19(1):118-27; Pignochino et al., 2010, BMC Cancer, 10:631).
The MTT method (tetrazolium dye reduction) was performed 48 h after light exposure with Lumisource. The culture medium was removed and cells were incubated in medium containing 0.25 mg/ml MTT (Sigma) for approximately 3 hours before replacement with 100 μl of 99% dimethylsulfoxide (Sigma). The 96 well plates were set on a shaker for 5 minutes before absorbance was measured at 570 nm with a power wave XS2 (Biotek, VT, USA). Wells without cells incubated with MTT-medium only were used for blank subtraction.
(In general: Formazan colour is commonly taken as a measure of viable cells.)

For data set [2], the system named is EGI-1 cell line. Description: Cytotoxicity of gemcitabine without PCI, MTT assay. The class given is cell-based, human. From the text: The cell lines used were TFK-1 and EGI-1, both were obtained from the Department of Cancer Prevention, The Norwegian Radium Hospital, Oslo, Norway. TFK-1 is a human papillary bile duct adenocarcinoma cell line and EGI-1 is a poorly differentiated human bile duct adenocarcinoma cell line. Both cell lines originate from extrahepatic tumours (Saijyo et al., 1995, Tohoku J. Exp. Med., 177:61-71; EGI-1-Cell LINCS Library of Intergrated network-based Cellular Signatures. Available from the website having the URL beginning with “[…] ending with “.hms.harvard.edu/db/cells/50181/”), but are quite different both morphologically and physiologically (Xu et al., 2013, Clinical Cancer Research, January 1; 19(1):118-27; Pignochino et al., 2010, BMC Cancer, 10:631).

In data set [3] the test system is TFK-1 cell line. In words: PCI with gemcitabine, MTT cytotoxicity assay. The class given is cell-based, human. How it is done: (§1) Di (monoethanolammonium) meso-tetraphenyl chlorin disulfonate (TPCS2a/Amphinex®) was provided by PCI Biotech AS (Lysaker, Norway). Amphinex batch number: FAMP 1002. TPCS2a (in 3% polysorbate 80, 2.8% mannitol, 50 mM Tris pH 8.5) stock solution (0.4 mg/ml) was kept at 4° C. in aliquots and light protected. All work with the photosensitizer was performed under subdued light.
(§2) Illumination of the cells was performed by using Lumisource (PCI Biotech, Oslo). This lamp consists of four standard light tubes (18 W/tube, Osram L 18/67), which emit blue light with a main peak at approximately 435 nm and was used for excitation of TPCS2a. The irradiance emitted from the blue light source was 12 mW/cm^2 and varied less than 10% across the illumination area (765 cm^2). The light source was air-cooled during light exposure to keep the irradiance stable and prevent cells from hyperthermia.
(§3) Cells were seeded in 96-well or 6-well plates (Nunclon, Nunc, Roskilde, Denmark) and allowed to attach at 37° C. overnight. […]
(§4) The MTT method (tetrazolium dye reduction) was performed 48 h after light exposure with Lumisource. […] The 96 well plates were set on a shaker for 5 minutes before absorbance was measured at 570 nm with a power wave XS2 (Biotek, VT, USA). […]

The test system of data set [4] is EGI-1 cell line. How it is done: as §1, §2, §3, §4
For data set [5], the system named is TFK-1 cells. In words: Colony formation assay after PCI treatment. The class given is cell-based, human. How it is done: Cells (25 000 cells/well) were seeded out in 6 well plates (Nunc) and allowed to adhere overnight and subjected to photochemical treatment described above. The cells were placed in the incubator and the culture medium was replaced with fresh culture medium after 3 days incubation. […] Subsequently, cells were washed in H2O and then dried before being evaluated by visual inspection.

For data set [6], the system named is NCI-H460 human lung cancer tumour cells. Description: Tumour growth of subcutaneous NCI-H460 xenografts after PCI with gemcitabine. The format is in vivo, Nude (nu/nu) athymic mice. Particulars: for No. of animals alive at the end of study: 10 animals at start. How it is done: Nude (nu/nu) athymic mice (female, CD-1 nu/nu strain, at least 6 weeks old) were used which have been used extensively to generate human tumour xenografts and remain the experimental method of choice for testing anti-tumour efficacy of new compounds prior to administration in man. The route of administration of the test substances was intravenous. The dose of Amphinex® was 5 mg/kg, based on earlier mouse studies performed by PCI Biotech AS and collaborators.
There were 6 treatment groups with 10 mice per group. Mice were injected subcutaneously with 7×10^7 cells/mL NCI-H460 tumour cells to allow selection of optimal tumours for inclusion in the study. Tumours of the appropriate size were allocated to the various treatment groups.
Amphinex® was administered intravenously via a tail vein, using a dose volume of 4 mL/kg.
Human NCI-H460 non-small cell lung cancer cells (American Type Culture Collection [ATCC], Maryland, USA, or the European Collection of Cell Cultures [ECACC], Porton Down, UK) were harvested from sub-confluent cultures growing in vitro and the number of viable cells determined. Cells were then re-suspended in sterile phosphate buffered saline (PBS) at a concentration of approximately 7×10^7 cells/mL. Nude (nu/nu) athymic mice were injected subcutaneously in the right flank with approximately 7×10^6 NCI-H460 cells in a volume of 0.1 mL. Animals were examined regularly for the appearance of tumours. When measurable tumours had established in the majority of mice, animals were assigned into 6 treatment groups with a target of up to 10 mice per group. Mice received an intravenous injection of Amphinex when the tumours had reached a size such that the tumour volume was approximately in the range 100 to 150 mm^3 72 hours later.
For tumour illumination each animal was restrained, one at a time, in a metal restraint which allows only the lower flank area, i.e. tumour area plus a 2 mm diameter surrounding area, to be exposed. A 650 nm diode laser (TWI Diode Laser, Quanta System, Italy) was then used to expose the tumour tissue to a light dose of 15 J/cm^2, with a fluence rate of 90 mW/cm^2. Each animal had their tumour exposed to the laser for approximately 167 s, to give the required dose of 15 J/cm^2.
Tumour size was measured at least twice weekly using digital callipers for up to 4 weeks following illumination or until the tumour size (as specified in the UK Home Office Licence) or other clinical signs necessitated removal of that mouse from the study. Tumour dimensions were recorded (length and width), and tumour volumes calculated using the formula (W^2×L)/2, where W is the […] tumour dimension and L is the longest. Animals were terminated if the tumour size had become excessive or any adverse effects were noted.
The tumour dimensions measured over the period of the study—length (L, long) and width (W, short) in mm, were recorded and kept as raw data. The mean tumour volumes on the first day of treatment were reported for each group. Calculations of relative tumour volumes and plots of mean tumour growth curves were performed. Body weight data were also obtained.

[7] abbreviates: 4 hours exposure, up to 1 mM tested, data not shown.
The mark [8] stands for this setting: gemcitabine 100 nM alone, no PCI.

Regarding `Nc1ccn([C@@H]2O[C@H](CO)[C@@H](O)C2(F)F)c(=O)n1` [Gemcitabine, 4-amino-1-(2-deoxy-2,2-difluoro-β-D-erythro-pentofuranosyl)pyrimidin-2(1H)-on], the figures for the cytotoxic effect entry in data set [1] (setting [7]), in data set [2] (setting [7]) and in data set [3] (setting [8]) were “only a very modest cytotoxic effect”, “only a very modest cytotoxic effect” and “about 50%”, respectively. The cytotoxicity result in data set [1] (72 hours exposure, 3 μM gemcitabine) is “about 50%”. For the same compound, the “cell killing (>90% level)” value in data set [2] (3 000 nM gemcitabine without PCI, 72 hours) is listed as “this level of cell killing was not obtained”. Further, the “sensitivity to gemcitabine (cytotoxicity)” value in data set [2] (72 hours exposure, highest dose employed (up to 3 μM)) is “insensitive”. The “effect on cell survival” value in data set [4] (setting [8]) is “no effect on cell survival”. Also, the colony forming ability result in data set [5] (gemcitabine 10 nM, PCI illumination time 140 s) is “substantial colony formation was observed”; in data set [5] (gemcitabine 33 nM), “some colony formation could be observed”; in data set [5] (gemcitabine 100 nM), “unable to form colonies”; in data set [5] (gemcitabine 330 nM) it was “unable to form colonies”. In addition, the “effect on tumour growth” value is on record as “no” in data set [6] (gemcitabine 200 mg/kg i.v., PCI: Amphinex 5 mg/kg i.v. + 650 nm 15 J/cm^2); “neither the photochemical treatment alone (PCI alone) nor gemcitabine alone had a significant effect on tumour growth” in data set [6] (gemcitabine 200 mg/kg i.v., PCI: Amphinex 5 mg/kg i.v. + 650 nm 15 J/cm^2, listed as gemcitabine); “only a very modest; also recorded: neither the photochemical treatment alone (PCI alone) nor gemcitabine alone (Gemcitabine 400 mg/kg) had a significant effect on tumour growth” in data set [6] (gemcitabine 400 mg/kg i.v., PCI: Amphinex 5 mg/kg i.v. + 650 nm 15 J/cm^2). Besides, the “No. of animals alive at the end of study” value in data set [6] (gemcitabine 200 mg/kg) is given as 5; in data set [6] (gemcitabine 400 mg/kg) it was 6.

With “Di (monoethanolammonium) meso-tetraphenyl chlorin disulfonate [PCI alone]”, the “effect on cell survival” value in data set [3] (photochemical treatment alone, 0.4 μg/ml TPCS2a + blue light) is on record as “only a modest effect on cell survival”. Moreover, in data set [4] (photochemical treatment alone, highest light dose), the cells killed result is “about 50%”. For the same compound, the colony forming ability result in data set [5] (PCI alone, illumination time 140 s) is reported as “still had the ability to form colonies”. For the same compound, in data set [6] (Amphinex 5 mg/kg + laser, no gemcitabine), the “No. of animals alive at the end of study” value amounted to 2. Moreover, the “effect on tumour growth” value in data set [6] (Amphinex 5 mg/kg i.v. + laser 15 J/cm^2, without gemcitabine) is reported as “virtually no effect; also recorded: neither the photochemical treatment alone (PCI alone) nor gemcitabine alone (Gemcitabine 400 mg/kg) had a significant effect on tumour growth”.
